# Assay results from patent US6465465B1, “Process for the treatment of erectile dysfunction and product therefor” (Arzneimittelwerk Dresden GmbH, priority 2000, dated 2002).
# Key:
# phosphodiesterase 5 = target: T1, phosphodiesterase 5 (Homo sapiens, UniProt O76074); assay: PDE 5 activity in enzyme preparations from human thrombocytes; type: biochemical; conditions: human thrombocyte enzyme, 0.5 μM [3H]cGMP; read-out: IC50, inhibition of phosphodiesterase 5
# T1 construct: The thrombocytes are lysed by ultrasound and used in the PDE 5 assay; from tissue; host or cells: human thrombocytes (platelets) from citrate-anticoagulated blood, lysed by ultrasound
# Protocol: PDE 5 activity is determined in enzyme preparations from human thrombocytes. Human blood was anti-coagulated with citrate. By centrifuging at 700 g for 20 minutes at room temperature, the thrombocyte-rich plasma in the supernatant is separated from the erythrocytes and leukocytes. The thrombocytes are lysed by ultrasound and used in the PDE 5 assay. With a few modifications, the phosphodiesterase activity is determined by the method described by Thompson et al. (Thompson, W. J., Appleman, M. M., Assay of cyclic nucleotide phosphodiesterase and resolution of multiple molecular forms of the enzyme, Adv. Cycl. Nucl. Res. 1979, 10, 69-92). The reaction mixtures contain 50 mM of tris HCl (pH 7.4), 5.5 mM of MgCl2, the inhibitors in variable concentrations, the enzyme preparation and the fuirther components necessary for determining the individual isoenzymes PDE 5 (see below). The reaction is started by the addition of the substrate, 0.5 μM of [^3H] cGMP (approximately 6,000 CPM/test). The final volume is […]. Test substances are prepared as stock solutions in DMSO. The DMSO concentration in the reaction mixture is 1% v/v. The PDE 5 activity is not affected by this concentration of DMSO. After the reaction is started by the addition of substrate, the samples are incubated for 30 minutes at 37° C. The reaction is stopped by heating the test tubes for 2 minutes at 110° C. The samples remain for a further 10 minutes in ice. The addition of 30 μL of 5′-nucleotidase (1 mg/mL, from a Crotalus adamanteus snake poison suspension) is followed by an incubation for 10 minutes at 37° C. The samples are stopped on ice. After the addition of 400 μL of a (1:1:1) mixture of Dowex, water and ethanol, the samples are mixed well and incubated once again for 15 minutes on ice. The reaction vessels are centrifuged for 20 minutes at 3,000 g. Subsequently, 200 μL aliquots of the supernatant are transferred directly to scintillation vessels. After the addition of 3 mL of scintillator, the samples are measured in the Betacounter. The in each case nonspecific enzyme activities are determined in the presence of 100 μM of IBMX for the determination of the PDE 5 and subtracted from the test values.
# [1] = test system: human corpus cavernosum tissue; assay: Influencing cAMP and cGMP levels in human corpus cavernosum strips; type: cell-based; conditions: 1.0 μmoles/L, 10 minutes
# Protocol: (§1) Strips of human atrium and human corpus cavernosum are incubated for 10 minutes with the test compounds at a concentration of 1.0 μmoles/L The preparations are frozen with liquid nitrogen and the resulting levels of the cyclic nucleotides are determined.
# human atrium tissue = assay: Influencing cAMP and cGMP levels in human atrium strips; type: cell-based; conditions: 1.0 μmoles/L, 10 minutes
# Protocol: as §1
# [2] = test system: human corpus cavernosum strips; assay: In vitro relaxation of human corpus cavernosum pre-contracted with noradrenalin; type: cell-based; conditions: organ bath
# Protocol: Strips of human corpus cavernosum are pre-contracted in an organ bath with noradrenalin. For test compounds, the relaxation is determined as a function of the concentration.
# [3] = test system: Rat fetal lung fibroblast cells (RFL-6); assay: Reinforcement of NO donor-induced intracellular cGMP increase in rat fetal lung fibroblasts; type: cell-based; conditions: RFL-6 cells
# Excerpt: Rat fetal lung fibroblast cells (RFL-6) represent a suitable medium for investigating influence of the action of NO on the intracellular cGNP level (Ishii et al. 1991). The basic mechanism can be transferred to the smooth vascular musculature of the corpus cavemosum.
# As a fuinction of the concentration, the inventive compounds reinforce the increase in the intracellular cGXD level induced by the NO donor S-nitroso-N-acetyl-D,L-penicillamine.
molecule,measurement,setting,value
"CCc1nc(C)c2c(=O)n(Cc3c(F)cccc3F)c3ccc(OC)nc3n12 [Example 12, 5-(2,6-difluorobenzyl)-1-ethyl-8-methoxy-3-methyl-imidazo[1,5-a]-pyrido[3,2-e]pyrazinone]",IC50,phosphodiesterase 5,38 nM
same,melting point,,177 to 180 °C
"CCc1nc(C)c2c(=O)n(Cc3ccccc3)c3ccc(OC)nc3n12 [Example 2, 5-benzyl-1-ethyl-8-methoxy-3-methyl-imidazo[1,5-a]-pyrido[3,2-e]pyrazinone]",IC50,phosphodiesterase 5,203 nM
same,melting point,,166 to 167 °C
"CCCc1nn(C)c2c(=O)[nH]c(-c3cc(S(=O)(=O)N4CCN(C)CC4)ccc3OCC)nc12 [sildenafil, reference compound]",increase of cAMP level,[1],238%
same,increase of cGMP level,[1],15%
same,increase of cAMP level,human atrium tissue,240%
same,increase of cGMP level,human atrium tissue,147%
"CCc1nc(C)c2c(=O)n(Cc3ccccc3F)c3ccc(OC)nc3n12 [Example 5, 1-ethyl-5-(2-fluorobenzyl)-8-methoxy-3-methyl-imidazo[1,5-a]-pyrido[3,2-e]pyrazinone]",IC50,phosphodiesterase 5,59 nM
same,melting point,,186 to 187 °C
CCc1nc(C)c2c(=O)n(Cc3ccc(F)cc3)c3ccc(OC)nc3n12 [Example 8],IC50,phosphodiesterase 5,126 nM
same,melting point,,189 to 191 °C
"CCc1nc(C)c2c(=O)n(Cc3ccc(OC)cc3)c3ccc(OC)nc3n12 [Example 7, 1-ethyl-8-methoxy-5-(4-methoxybenzyl)-8-methoxy-3-methyl-imidazo[1,5-a]-pyrido[3,2-e]pyrazinone]",IC50,phosphodiesterase 5,104 nM
same,melting point,,156 to 158 °C
"CCc1nc(C)c2c(=O)n(Cc3c(F)ccc(F)c3F)c3ccc(OC)nc3n12 [Example 13, 1-ethyl-8-methoxy-3-methyl-5-(2,3,6-trifluorobenzyl)-imidazo[1,5-a]-pyrido[3,2-e]pyrazinone]",EC50,[2],150 nM
same,effectiveness relative to the nonspecific PDE inhibitor IBMX,[3]; cGMP level increase,1000 times
same,increase in the intracellular cGMP level,"[3]; compound at 0.10 μmoles/l, NO donor S-nitroso-N-acetyl-D,L-penicillamine",significantly induces an increase
same,IC50,phosphodiesterase 5,16 nM
same,melting point,,183 to 185 °C
"CCCc1nc(C)c2c(=O)n(Cc3c(F)cccc3Cl)c3ccc(OC)nc3n12 [Example 14, 5-(2-chloro-6-fluorobenzyl)-8-methoxy-3-methyl-1-propyl-imidazo[1,5-a]-pyrido[3,2-e]pyrazinone]",IC50,phosphodiesterase 5,8 nM
same,melting point,,159 to 162 °C
"CCc1nc(C)c2c(=O)n(Cc3c(F)cccc3Cl)c3ccc(OC)nc3n12 [Example 11, 5-(2-chloro-6-fluorobenzyl)-1-ethyl-8-methoxy-3-methyl-imidazo[1,5-a]-pyrido[3,2-e]pyrazinone]",IC50,phosphodiesterase 5,19 nM
same,increase of cAMP level,[1],80%
same,increase of cGMP level,[1],214%
same,melting point,,197 to 200 °C
same,increase of cAMP level,human atrium tissue,11%
same,increase of cGMP level,human atrium tissue,247%
"5-(2,6-dichlrobenzyl)-1-ethyl-8-methoxy-3-methyl-imidazol[1,5-a]-pyrido[3,2-e]pyrazinone [Example 10]",IC50,phosphodiesterase 5,132 nM
"CCCc1nc(C)c2c(=O)n(Cc3c(F)ccc(F)c3F)c3ccc(OC)nc3n12 [Example 16, 8-methoxy-3-methyl-1-propyl-5-(2,3,6-trifluorobenzyl)-imidazo[1,5-a]-pyrido[3,2-e]pyrazinone]",IC50,phosphodiesterase 5,5 nM
same,melting point,,197 to 199 °C
"CCCc1nc(C)c2c(=O)n(Cc3c(F)cccc3F)c3ccc(OC)nc3n12 [Example 15, 5-(2,6-difluorobenzyl)-8-methoxy-3-methyl-1-propyl-imidazo[1,5-a]-pyrido[3,2-e]pyrazinone]",IC50,phosphodiesterase 5,2 nM
same,melting point,,171 to 172 °C
"CCc1nc(C)c2c(=O)n(Cc3ccc(Cl)cc3)c3ccc(OC)nc3n12 [Example 9, 5-(4-chlorobenzyl)-1-ethyl-8-methoxy-3-methyl-imidazo[1,5-a]-pyrido[3,2-e]pyrazinone]",IC50,phosphodiesterase 5,112 nM
same,melting point,,201 to 202 °C
"5-cyclohexyl-1-ethyl-8-methoxy-3-methyl-imidazo[1,5-a]-pyrido[3,2-e]pyrazinone [Example 1]",IC50,phosphodiesterase 5,25 nM
